Data from US20250073232A1, “COMBINATIONS OF LSD1 INHIBITORS FOR TREATING MYELOID CANCERS” (ORYZON GENOMICS, S.A., priority 2021, published 2025).

Columns and labels:
MOLM-13 = assay: Single agent viability assay (96 hours, alamarBlue); type: cell-based; details: for EC50: Homo sapiens, 96 hours incubation
Experimental: (§1) Mycoplasma-free AML cell lines were maintained in RPMI 10% FBS medium at 37° C. in a humidified incubator with controlled 5% CO2 atmosphere. Cell freezing and thawing was performed following recommendation from ATCC. Genetic profiling of the cell lines used is available in Table 1.
(§2) Cells were seeded in 96-well plates at the optimal density to guarantee linear growth throughout the assay (8000 cells/well for MV(4; 11), 4000 cells/well for MOLM-13 and OCI-AML3, 2000 cells/well for TF1a) in 50 μL of medium. Each experimental condition was tested in technical triplicates, including medium-only and vehicle-treated controls for background correction and normalization, respectively. After seeding, 50 μL of medium containing 9 serial dilutions (1:3) of 2×-concentrated compound were added to the cells to obtain 100 μL of cells with 1×-concentrated compound at each dilution. Cells were then incubated for 96 hours at 37° C. in a controlled 5% CO2 atmosphere, prior to evaluation of cell viability using alamarBlue™ cell viability reagent (ThermoFisher Scientific, Waltham, MA/USA). AlamarBlue™ is a cell viability indicator that uses the natural reducing power of living cells to convert resazurin to the fluorescent molecule, resorufin. Briefly, alamarBlue™ stock solution was diluted 1:20 in the culture medium and after 3 hours incubation fluorescence was measured using a TECAN Infinity 2000 plate reader (Tecan Group Ltd., Männedorf, CH; 540-570 nm excitation wavelength, 580-610 nm emission wavelength). For each condition, the average fluorescence was calculated from the 3 technical replicates; background correction was calculated from the fluorescence of medium-only controls. Data were analyzed using the GraphPad PRISM® version 9.0.1 (GraphPad Software, Inc., La Jolla, CA/USA) to calculate the best-fitting curves and the EC50 values.

MV(4; 11) = assay: as above; type: cell-based; details: for EC50: Homo sapiens, MV4-11, 96 hours incubation
Experimental: as §1, §2

OCI-AML3 = assay: as above; type: cell-based; details: for EC50: Homo sapiens; for EC50 range in words / reduction of viability (compared to vehicle controls): single agent, 96 hours
Experimental: as §1, §2

TF-1a = assay: as above; type: cell-based; details: for EC50 range in words / reduction of viability (compared to vehicle controls): 96 hours; for EC50: TF-1a
Experimental: as §1, §2

R/R AML = R/R AML patients treated with gilteritinib; cited from earlier work
[1] = OCI-AML-3, single agent, 96 hours incubation
[2] = single agent, 96 hours incubation

CCc1nc(C(N)=O)c(Nc2ccc(N3CCC(N4CCN(C)CC4)CC3)c(OC)c2)nc1NC1CCOCC1 [gilteritinib, 6-ethyl-3-[[3-methoxy-4-[4-(4-methylpiperazinyl)piperidin-1-yl]phenyl]amino]-5-[(tetrahydro-2H-pyran-4-yl)amino]pyrazine-2-carboxamide]
EC50 range in words (MOLM-13; 96 hours): nanomolar range | reduction of viability (compared to vehicle controls) (MOLM-13; 96 hours): ~100% | EC50 (MOLM-13): 2.91 nM | EC50 range in words (MV(4; 11); 96 hours): nanomolar range | reduction of viability (compared to vehicle controls) (MV(4; 11); 96 hours): ~100% | EC50 (MV(4; 11)): 0.77 nM | EC50 (OCI-AML3; [1]): 1160 nM | EC50 range in words (OCI-AML3): micromolar range | reduction of viability (compared to vehicle controls) (OCI-AML3): > 70% | EC50 range in words (TF-1a; TF1a, single agent): micromolar range | reduction of viability (compared to vehicle controls) (TF-1a; TF1a, single agent): > 70% | EC50 (TF-1a; [2]): 1020 nM | R/R AML patients showing complete remission (R/R AML): 21% | relapse-free survival (R/R AML): around 4 months

N[C@H]1CC[C@H](N[C@@H]2C[C@H]2c2ccccc2)CC1 [iadademstat, (trans)-N1-((1R,2S)-2-phenylcyclopropyl)cyclohexane-1,4-diamine]
EC50 range in words (MOLM-13; 96 hours): sub-nanomolar range | EC50 (MOLM-13): 0.39 nM | EC50 range in words (MV(4; 11); 96 hours): sub-nanomolar range | EC50 (MV(4; 11)): 0.43 nM | EC50 (OCI-AML3; [1]): 0.38 nM | EC50 range in words (OCI-AML3): sub-nanomolar range | reduction of viability (compared to vehicle controls) (OCI-AML3): greater than 20% | EC50 range in words (TF-1a; TF1a, single agent): sub-nanomolar range | reduction of viability (compared to vehicle controls) (TF-1a; TF1a, single agent): greater than 20% | EC50 (TF-1a; [2]): 0.35 nM

CN1CCN(C(=O)[C@H](CCCN[C@@H]2C[C@H]2c2ccc(F)cc2)NC(=O)c2ccc(-n3ccnn3)cc2)CC1 [bomedemstat, N-[(2S)-5-{[(1R,2S)-2-(4-fluorophenyl)cyclopropyl]amino}-1-(4-methylpiperazin-1-yl)-1-oxopentan-2-yl]-4-(1H-1,2,3-triazol-1-yl) benzamide]
EC50 range in words (MOLM-13; 96 hours): nanomolar range | EC50 (MOLM-13): 6.08 nM | EC50 range in words (MV(4; 11); 96 hours): nanomolar range | EC50 (MV(4; 11)): 3.73 nM

COc1ccc(-c2c(-c3ccc(C#N)c(F)c3)nc(N3CCC(N)CC3)n(C)c2=O)cc1F [CC-90011, 4-[2-(4-aminopiperidin-1-yl)-5-(3-fluoro-4-methoxyphenyl)-1-methyl-6-oxo-1,6-dihydropyrimidin-4-yl]-2-fluorobenzonitrile]
EC50 range in words (MOLM-13; 96 hours): nanomolar range | EC50 (MOLM-13): 1.49 nM | EC50 range in words (MV(4; 11); 96 hours): nanomolar range | EC50 (MV(4; 11)): 2.3 nM

CC1(C)CCC(CN2CCN(c3ccc(C(=O)NS(=O)(=O)c4ccc(NCC5CCOCC5)c([N+](=O)[O-])c4)c(Oc4cnc5[nH]ccc5c4)c3)CC2)=C(c2ccc(Cl)cc2)C1 [venetoclax]
EC50 (OCI-AML3; OCI-AML-3, tested following the method described above): > 10000 nM | EC50 (TF-1a; TF1a, tested following the method described above): > 10000 nM
